The term Papp A→B denotes the apparent permeability from the apical to the basolateral side of a cell layer. Lower therefore signals poor permeation. As a reminder, the logD is lipophilicity at a set pH, counting ionised and neutral species. As usually defined, the IC50 is the concentration that gives 50% inhibition. As usually defined, the solubility is the concentration that dissolves in the medium under given conditions. A low value points to little dissolved substance.

One compound from ChEMBL document CHEMBL3860098, “Sulfamide as Zinc Binding Motif in Small Molecule Inhibitors of Activated Thrombin Activatable Fibrinolysis Inhibitor (TAFIa)” (J Med Chem, 2016) can be followed below.

A short description of data set [1]: Permeability across apical to basolateral side in human Caco2/TC7 cells at 20 uM after 120 mins by UPLC/ESI-MS-MS analysis. It counts as ADME, cell-based. The note with it: Caco-2. For orientation: Caco-2 cells form a polarised layer with tight junctions and transporters.
The target of data set [2] is T1, Cytochrome P450 1A1 (Homo sapiens, UniProt P04798).
T1 sequence (P04798 whole entry): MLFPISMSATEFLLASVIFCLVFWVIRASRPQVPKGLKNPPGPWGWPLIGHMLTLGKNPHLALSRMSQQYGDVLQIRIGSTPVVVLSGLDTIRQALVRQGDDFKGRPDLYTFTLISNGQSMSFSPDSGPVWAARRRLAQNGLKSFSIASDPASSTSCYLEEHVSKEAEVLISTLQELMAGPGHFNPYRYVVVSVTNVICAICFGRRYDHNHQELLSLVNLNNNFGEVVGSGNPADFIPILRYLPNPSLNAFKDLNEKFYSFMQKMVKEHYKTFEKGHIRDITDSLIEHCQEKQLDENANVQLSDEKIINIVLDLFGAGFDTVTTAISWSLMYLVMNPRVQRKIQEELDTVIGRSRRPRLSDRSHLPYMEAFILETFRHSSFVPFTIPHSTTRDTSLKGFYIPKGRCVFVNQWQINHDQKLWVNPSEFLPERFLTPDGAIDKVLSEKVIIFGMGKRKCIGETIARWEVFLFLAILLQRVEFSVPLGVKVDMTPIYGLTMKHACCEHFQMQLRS
The data set can be described thus: Induction of CYP1A1 (unknown origin). It counts as ADME.

The nature of data set [3]: Drug metabolism in Swiss CD1 mouse liver microsomes assessed as CYP450/FMO-mediated oxidative metabolism at 5 uM after 20 mins in presence of NADPH. It counts as ADME. The note with it: read-out: Drug metabolism. (Liver microsomes are a subcellular fraction often used to study metabolism.)
A short description of data set [4]: Lipophilicity, log D of the compound at pH 7.4 at 25 degC. It counts as physicochemical. The note with it: buffer.
A short description of data set [5]: Drug metabolism in human liver microsomes assessed as CYP450/FMO-mediated oxidative metabolism at 5 uM after 20 mins in presence of NADPH. It counts as ADME. The note with it: read-out: Drug metabolism.
In data set [6] the target is T2, Cytochrome P450 1A2 (Homo sapiens, UniProt P05177).
T2 sequence (P05177 whole entry): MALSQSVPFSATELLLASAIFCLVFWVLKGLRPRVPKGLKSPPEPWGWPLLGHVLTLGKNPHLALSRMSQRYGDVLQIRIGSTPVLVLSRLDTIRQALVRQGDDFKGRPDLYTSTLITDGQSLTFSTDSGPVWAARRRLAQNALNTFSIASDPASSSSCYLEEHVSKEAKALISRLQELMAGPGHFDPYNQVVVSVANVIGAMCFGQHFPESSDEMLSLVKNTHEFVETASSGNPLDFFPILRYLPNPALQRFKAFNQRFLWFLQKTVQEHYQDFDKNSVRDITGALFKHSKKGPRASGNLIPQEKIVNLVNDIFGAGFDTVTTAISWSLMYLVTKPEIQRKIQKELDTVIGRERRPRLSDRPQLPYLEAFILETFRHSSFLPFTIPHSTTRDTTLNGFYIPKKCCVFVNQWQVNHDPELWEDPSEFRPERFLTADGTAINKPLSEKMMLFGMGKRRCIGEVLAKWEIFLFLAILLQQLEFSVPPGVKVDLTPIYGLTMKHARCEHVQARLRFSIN
The data set can be described thus: Induction of CYP1A2 (unknown origin). It counts as ADME.

Data set [7] is described as follows: Drug metabolism in Sprague-Dawley rat liver microsomes assessed as CYP450/FMO-mediated oxidative metabolism at 5 uM after 20 mins in presence of NADPH. It counts as ADME. The note with it: read-out: Drug metabolism.
Data set [8] concerns the target Cytochrome P450 3A4 (Homo sapiens, UniProt P08684). The data set is described as follows: Induction of CYP3A4 (unknown origin). It counts as ADME.
The nature of data set [9]: Intrinsic clearance in human hepatocytes assessed per 10^6 cells. It counts as ADME, cell-based, Hepatocyte.
For data set [10], the target named is Voltage-gated inwardly rectifying potassium channel KCNH2 (Homo sapiens, UniProt Q12809). The data set can be described thus: Inhibition of recombinant human ERG expressed in CHO cells by patch clamp method. It counts as cell-based.
Data set [11] in a line: Aqueous solubility of the compound at pH 7.4 at 25 degC. It counts as physicochemical.

Where only a bound is given, the exact number is not on record here.

Sequence of Voltage-gated inwardly rectifying potassium channel KCNH2 (Q12809 whole entry): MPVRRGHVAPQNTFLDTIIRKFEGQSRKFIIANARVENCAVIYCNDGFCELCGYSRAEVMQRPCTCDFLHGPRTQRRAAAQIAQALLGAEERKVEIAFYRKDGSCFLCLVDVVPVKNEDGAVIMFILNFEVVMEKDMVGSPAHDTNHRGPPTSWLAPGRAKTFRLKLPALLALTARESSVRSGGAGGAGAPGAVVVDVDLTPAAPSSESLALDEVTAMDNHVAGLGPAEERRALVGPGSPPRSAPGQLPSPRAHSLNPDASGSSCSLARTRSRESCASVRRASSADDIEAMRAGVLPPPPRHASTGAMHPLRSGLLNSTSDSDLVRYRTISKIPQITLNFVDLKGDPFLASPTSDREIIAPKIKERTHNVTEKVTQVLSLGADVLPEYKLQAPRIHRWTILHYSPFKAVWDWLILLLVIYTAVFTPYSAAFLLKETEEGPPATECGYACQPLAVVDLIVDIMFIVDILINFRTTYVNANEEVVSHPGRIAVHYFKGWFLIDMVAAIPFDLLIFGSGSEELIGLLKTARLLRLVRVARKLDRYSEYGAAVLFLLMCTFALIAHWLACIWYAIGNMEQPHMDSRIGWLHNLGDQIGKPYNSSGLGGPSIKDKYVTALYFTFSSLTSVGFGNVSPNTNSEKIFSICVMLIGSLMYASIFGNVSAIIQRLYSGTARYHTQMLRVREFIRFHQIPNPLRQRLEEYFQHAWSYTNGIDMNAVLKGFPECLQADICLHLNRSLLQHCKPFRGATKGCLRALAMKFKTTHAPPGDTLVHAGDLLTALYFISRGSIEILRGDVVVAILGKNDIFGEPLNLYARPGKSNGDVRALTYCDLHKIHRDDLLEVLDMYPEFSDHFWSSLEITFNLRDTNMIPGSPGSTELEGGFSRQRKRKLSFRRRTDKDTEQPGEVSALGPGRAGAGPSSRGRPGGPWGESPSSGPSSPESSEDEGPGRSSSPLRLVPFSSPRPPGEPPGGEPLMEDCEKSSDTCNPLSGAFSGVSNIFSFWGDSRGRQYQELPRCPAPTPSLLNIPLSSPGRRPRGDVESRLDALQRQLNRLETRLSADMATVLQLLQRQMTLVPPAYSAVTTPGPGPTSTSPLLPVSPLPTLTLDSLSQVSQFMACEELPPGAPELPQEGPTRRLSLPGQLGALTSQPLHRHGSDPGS
Sequence of Cytochrome P450 3A4 (P08684 whole entry): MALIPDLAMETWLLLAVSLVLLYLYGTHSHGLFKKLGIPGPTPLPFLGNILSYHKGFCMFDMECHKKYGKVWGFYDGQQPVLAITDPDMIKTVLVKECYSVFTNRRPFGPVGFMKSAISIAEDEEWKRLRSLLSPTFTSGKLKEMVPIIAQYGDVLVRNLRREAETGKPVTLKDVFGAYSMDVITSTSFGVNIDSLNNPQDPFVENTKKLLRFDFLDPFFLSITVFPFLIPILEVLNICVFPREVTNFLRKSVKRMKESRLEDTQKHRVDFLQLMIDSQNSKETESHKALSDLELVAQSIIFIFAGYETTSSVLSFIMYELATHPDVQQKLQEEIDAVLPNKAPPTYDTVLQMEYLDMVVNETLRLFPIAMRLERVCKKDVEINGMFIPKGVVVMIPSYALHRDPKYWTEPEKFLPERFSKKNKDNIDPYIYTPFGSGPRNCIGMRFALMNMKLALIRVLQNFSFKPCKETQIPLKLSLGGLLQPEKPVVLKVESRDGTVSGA

Compound `CC1(C)[C@@H]2CC[C@@]1(C)[C@@H](NC(=O)[C@H](CC1CCCCC1)NS(=O)(=O)N[C@@H](CCCCN)C(=O)O)C2.Cl` displayed a Papp A→B at 2 h, 20 µM in data set [1] of 0.06 ×10⁻⁶ cm/s. Also, the Activity in [2], in data set [6] and in [8] was under 10% each time. Further, the metabolised at 20 min, 5 µM in data set [3] is 0%; in [5], 21%; in data set [7] it was 8%. Also, in [4], the logD was 2.02. The compound further returned a CLH in data set [9] of 0.043 mL/h. Further, in [10], the half-maximal inhibitory concentration (IC50) was over 10 µM. In [11], this compound registered a solubility of 457 µg/mL.
